# Test results from PubChem BioAssay (NCI).
#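 A five-concentration, 48-hour dose response in 96-well plates underlies each endpoint, interpolated linearly between surrounding concentrations. GI50 marks 50% less growth. TGI: concentration producing complete growth inhibition.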
# Legend:
# Experiment in all cases: NCI tumour cell line growth inhibition, 48 h
# [1] = system: OVCAR-5 ovarian
# [2] = system: DU-145 prostate
# [3] = system: HCT-116 colon
# [4] = system: HL-60(TB) leukemia
# [5] = system: SF-268 CNS
# [6] = system: LOX IMVI melanoma
# [7] = system: MDA-MB-231 breast
# [8] = system: HOP-92 NSCLC
# [9] = system: T-47D breast
# [10] = system: IGROV1 ovarian
# [11] = system: NCI-H23 lung
# [12] = system: KM12 colon
# [13] = system: SK-OV-3 ovarian
# [14] = system: M14 melanoma
# [15] = system: A498 renal
# [16] = system: OVCAR-8 ovarian
# [17] = system: MALME-3M melanoma
# [18] = system: SK-MEL-2 melanoma
# [19] = system: ACHN renal
# [20] = system: HCC-2998 colon
# [21] = system: SF-539 CNS
# [22] = system: TK-10 renal
# [23] = system: NCI/ADR-RES ovarian
# [24] = system: SNB-75 CNS
# [25] = system: U251 CNS
# [26] = system: UACC-257 melanoma
# [27] = system: OVCAR-3 ovarian
# [28] = system: EKVX NSCLC
# [29] = system: MCF7 breast
# [30] = system: SR leukemia
structure (smiles),measurement,setting,value
C=C1CCC2C3(C)COC(c4cccc(F)c4)OC3CCC2(C)C1C/C=C1/C(=O)OCC1O (centres undefined),GI50,[1],4.04 µM
same,TGI,[1],15.9 µM
same,GI50,[2],6.21 µM
same,TGI,[2],18.5 µM
same,GI50,[3],1850 nM
same,TGI,[3],3.62 µM
same,GI50,[4],1980 nM
same,TGI,[4],6.83 µM
same,GI50,[5],6 µM
same,TGI,[5],19.8 µM
same,GI50,[6],1670 nM
same,TGI,[6],3.08 µM
same,GI50,[7],2610 nM
same,TGI,[7],7.25 µM
same,GI50,[8],6.48 µM
same,TGI,[8],21.2 µM
same,GI50,[9],3.61 µM
same,TGI,[9],16 µM
same,GI50,[10],10.3 µM
same,TGI,[10],23.2 µM
same,GI50,[11],11 µM
same,TGI,[11],24.2 µM
same,GI50,[12],3.92 µM
same,TGI,[12],14.8 µM
same,GI50,[13],16.1 µM
same,TGI,[13],29.9 µM
same,GI50,[14],6.93 µM
same,TGI,[14],21.3 µM
same,GI50,[15],14.1 µM
same,TGI,[15],27.7 µM
same,GI50,[16],1860 nM
same,TGI,[16],4.27 µM
same,GI50,[17],13.2 µM
same,TGI,[17],26.2 µM
same,GI50,[18],5.95 µM
same,TGI,[18],19.1 µM
same,GI50,[19],4.48 µM
same,TGI,[19],15.8 µM
same,GI50,[20],8.09 µM
same,TGI,[20],20.9 µM
same,GI50,[21],1960 nM
same,TGI,[21],3.81 µM
same,GI50,[22],14.8 µM
same,TGI,[22],28.2 µM
same,GI50,[23],1980 nM
same,TGI,[23],4.08 µM
same,GI50,[24],2130 nM
same,TGI,[24],10.8 µM
same,GI50,[25],2250 nM
same,TGI,[25],6.24 µM
same,GI50,[26],5.51 µM
same,TGI,[26],19.7 µM
same,GI50,[27],1870 nM
same,TGI,[27],4.08 µM
same,GI50,[28],16.5 µM
same,TGI,[28],30.8 µM
same,GI50,[29],2250 nM
same,TGI,[29],7.71 µM
same,GI50,[30],3.52 µM
